Results reported in US11207301B2, “Sphingosine 1 phosphate receptor agonists for neuroprotection” (RECEPTOS LLC, priority 2017, dated 2021).

Legend:
Recombinant human MAO-A = target: T1, Recombinant human MAO-A (Homo sapiens, UniProt P21397); assay: MAO-A inhibition, conversion of kynuramine to 4-hydroxyquinoline; format: biochemical
T1 construct: purchased Sigma-Aldrich M7316; host or cells: baculovirus infected insect cells
T1 sequence (P21397 1-527): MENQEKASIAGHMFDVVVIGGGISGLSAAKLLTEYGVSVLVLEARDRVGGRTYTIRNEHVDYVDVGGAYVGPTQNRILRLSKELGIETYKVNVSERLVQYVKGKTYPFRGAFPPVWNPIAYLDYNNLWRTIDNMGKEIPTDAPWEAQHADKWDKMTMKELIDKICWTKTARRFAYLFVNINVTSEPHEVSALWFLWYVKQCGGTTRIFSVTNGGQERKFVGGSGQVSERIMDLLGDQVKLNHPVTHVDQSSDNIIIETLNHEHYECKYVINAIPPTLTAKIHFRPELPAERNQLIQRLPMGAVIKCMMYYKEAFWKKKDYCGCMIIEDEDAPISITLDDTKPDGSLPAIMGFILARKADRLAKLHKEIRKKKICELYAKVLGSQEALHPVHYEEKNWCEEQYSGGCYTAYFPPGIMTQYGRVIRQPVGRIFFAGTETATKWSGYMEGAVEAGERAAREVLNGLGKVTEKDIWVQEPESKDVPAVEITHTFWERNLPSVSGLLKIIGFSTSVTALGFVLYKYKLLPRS
Experimental: (§1) The effect of a S1P receptoragonist on MAO-B activity can be assessed by measuring the inhibition of conversion of substrate kynuramine to 4-hydroxyquinoline as described in Example 4.
(§2) Compound 1 and Compound 2-S were evaluated for their ability to inhibit MAO-A and MAO-B. Inhibition of the conversion of kynuramine, a substrate for MAO-A and MAO-B, to 4-hydroxyquinoline was used to assess the inhibitory potential of Compound 1 and Compound 2-S. Recombinant human MAO-A (product number M7316) and MAO-B (product number M7441) expressed in baculovirus infected insect cells were obtained from Sigma-Aldrich, Saint Louis, Mo. USA were used as a source of purified MAOs.
Recombinant MAO-A (0.01 mg/mL, final concentrations) and MAO-B (0.02 mg/mL, final concentration) were diluted to desired concentrations in 100 mM potassium phosphate buffer (pH 7.4) containing 5 mM MgCl2. The diluted protein fractions were preincubated with various concentrations of each test compound at 37° C. for 2 min. The concentrations used were 100, 33, 10, 3.3, 1.0, 0.33 μM and acetonitrile/DMSO as vehicle control for MAO-A and 1.0, 0.3, 0.1, 0.03, 0.01, 0.003 μM and acetonitrile/DMSO as vehicle control for MAO-B. The reaction was started by addition of kynuramine to the incubation mixture. The final concentration of kynuramine was 40 μM for MAO-A and 25 μM for MAO-B. The total incubation volume was 0.250 mL. […] The reaction product, 4-hydroxyquinoline was analyzed by LC-MS/MS as described below. […]
(§3) The gradient system was used to separate the analytes with a flow rate of 0.5 ml/min using mobile phase A, water containing 0.1% formic acid and mobile phase B, acetonitrile containing 0.1% formic acid. […] The analytes were monitored using multiple reaction monitoring and the ion transitions (Q1/Q3) were as follows: 4-hydroxyquinoline 146/104 (collision energy, CE was 27; declustering potential, DP, 50, and IS (acetaminophen), 152/110 (collision energy, CE was 27; declustering potential, DP, 50). All data were analyzed using AB Sciex Analyst v1.6.2 software.

[1] = tested on: cuprizone-induced mouse model of demyelination; assay: Cuprizone-induced mouse model of demyelination / neuroprotection; format: in vivo, C57BL/6 mice; conditions: 1 mg/kg; vehicle 258±49.1, p<0.001
Description: The effect of a S1P receptor agonist on spinal cord axial demyelination or reduction in axonal breaks can be assessed by measuring concentration of neurofilament light chain (NfL) in the plasma. NfL is released to the plasma following axonal injury and degeneration. Histological examination of axons with antineurofilament H non-phosphorylated mouse antibody SMI-32 can also be used to assess axonal demyelination or breaks. NfH is phosphorylated in healthy axons and unphosphorylated in damaged axons. In addition, the effects of ozanimod on the CNS were examined in vivo using the cuprizone-induced mouse model of demyelination and in vitro in primary rodent astrocytes. Efficacy of ozanimod or compound (2-R) was examined in the cuprizone-induced mouse model of neuroprotection. C57BL/6 mice were treated with cuprizone (0.3% weight/weight orally) and rapamycin (10 mg/kg intraperitoneally daily) to demyelinate axons in the brain and concurrently treated with ozanimod (0.1, 0.3, or 1 mg/kg) or compound (2-S) (1 mg/kg) by daily oral gavage to investigate its neuroprotective activity. Neuroprotection was assessed through examination of axonal pathology in the corpus callosum using SMI-32 (antineurofilament H non-phosphorylated mouse monoclonal antibody) staining, functional assessment through kinematic gait analysis and the plasma biomarker neurofilament light chain (NfL). Further, direct activity of ozanimod was examined in resting and activated primary rodent astrocytes in vitro.

Recombinant human MAO-B = target: T2, Recombinant human MAO-B (Homo sapiens, UniProt P27338); assay: MAO-B inhibition, conversion of kynuramine to 4-hydroxyquinoline; format: biochemical
T2 construct: purchased Sigma-Aldrich M7441; host or cells: baculovirus infected insect cells
T2 sequence (P27338 1-520): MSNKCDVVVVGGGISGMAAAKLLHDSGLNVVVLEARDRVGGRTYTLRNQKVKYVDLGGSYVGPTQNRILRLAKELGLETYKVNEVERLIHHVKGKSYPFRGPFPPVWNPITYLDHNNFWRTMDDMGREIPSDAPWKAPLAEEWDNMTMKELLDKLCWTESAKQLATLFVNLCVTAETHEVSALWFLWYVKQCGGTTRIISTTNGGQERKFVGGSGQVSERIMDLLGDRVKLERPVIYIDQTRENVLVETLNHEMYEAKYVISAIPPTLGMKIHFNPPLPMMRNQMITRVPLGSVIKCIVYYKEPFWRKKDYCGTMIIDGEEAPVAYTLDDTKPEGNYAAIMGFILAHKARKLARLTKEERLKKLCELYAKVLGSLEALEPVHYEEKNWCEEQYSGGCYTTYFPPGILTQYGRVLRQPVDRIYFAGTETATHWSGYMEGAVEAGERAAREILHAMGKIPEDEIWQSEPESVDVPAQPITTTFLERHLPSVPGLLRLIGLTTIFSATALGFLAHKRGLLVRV
Experimental: as §1, §2
Recombinant MAO-A (0.01 mg/mL, final concentrations) and MAO-B (0.02 mg/mL, final concentration) were diluted to desired concentrations in 100 mM potassium phosphate buffer (pH 7.4) containing 5 mM MgCl2. The diluted protein fractions were preincubated with various concentrations of each test compound at 37° C. for 2 min. The concentrations used were 100, 33, 10, 3.3, 1.0, 0.33 μM and acetonitrile/DMSO as vehicle control for MAO-A and 1.0, 0.3, 0.1, 0.03, 0.01, 0.003 μM and acetonitrile/DMSO as vehicle control for MAO-B. The reaction was started by addition of kynuramine to the incubation mixture. The final concentration of kynuramine was 40 μM for MAO-A and 25 μM for MAO-B. The total incubation volume was 0.250 mL. This concentration was selected to be close to the Km values of MAO-A (Km 42 μM) and MAO-B (Km 26 μM). After 10 min of incubation, aliquots (100 μL) of the reaction mixture were taken and added to 200 μL acetonitrile containing 0.5 μM IS (acetaminophen). The reaction product, 4-hydroxyquinoline was analyzed by LC-MS/MS as described below.
MS characterization and detection of kynuramine and 4-hydroxyquinoline was performed using ABI 4000 Sciex QTrap mass spectrometer utilizing a Turbo Spray. The mass spectrometer was controlled by Analyst v1.6.2. The ESI was operated in a positive ion mode and the experimental parameters were set as follows: ion spray voltage, 2000; source temperature, 550° C.; curtain gas, 20; collision gas, medium ion source gas 1, 55; ion source gas 2, 50. […]
as §3

CC(C)Oc1ccc(-c2nc(-c3cccc4c3CC[C@@H]4N)no2)cc1C#N [Compound 2-S]
IC50 (Recombinant human MAO-A; kynuramine 40 μM, 10 min incubation): 1200 nM
MAO-A inhibition (in words) (Recombinant human MAO-A; tested up to 100 μM): inhibitory activity
plasma biomarker NfL [1]: 127 ± 12.2 pg/mL
MAO-B inhibition (in words) (Recombinant human MAO-B): inhibitory activity
IC50 (Recombinant human MAO-B; kynuramine 25 μM, 10 min incubation): 32 nM
